Values quoted from earlier work as cited in patent publication US8865693B2, “Prevention of infection” (Pop Test Cortisol LLC, priority 2011, dated 2014).

Experiments:
glucocorticoid receptor = target: T1, glucocorticoid receptor (Homo sapiens, UniProt P04150); details: in words only
T1 sequence (P04150 1-777): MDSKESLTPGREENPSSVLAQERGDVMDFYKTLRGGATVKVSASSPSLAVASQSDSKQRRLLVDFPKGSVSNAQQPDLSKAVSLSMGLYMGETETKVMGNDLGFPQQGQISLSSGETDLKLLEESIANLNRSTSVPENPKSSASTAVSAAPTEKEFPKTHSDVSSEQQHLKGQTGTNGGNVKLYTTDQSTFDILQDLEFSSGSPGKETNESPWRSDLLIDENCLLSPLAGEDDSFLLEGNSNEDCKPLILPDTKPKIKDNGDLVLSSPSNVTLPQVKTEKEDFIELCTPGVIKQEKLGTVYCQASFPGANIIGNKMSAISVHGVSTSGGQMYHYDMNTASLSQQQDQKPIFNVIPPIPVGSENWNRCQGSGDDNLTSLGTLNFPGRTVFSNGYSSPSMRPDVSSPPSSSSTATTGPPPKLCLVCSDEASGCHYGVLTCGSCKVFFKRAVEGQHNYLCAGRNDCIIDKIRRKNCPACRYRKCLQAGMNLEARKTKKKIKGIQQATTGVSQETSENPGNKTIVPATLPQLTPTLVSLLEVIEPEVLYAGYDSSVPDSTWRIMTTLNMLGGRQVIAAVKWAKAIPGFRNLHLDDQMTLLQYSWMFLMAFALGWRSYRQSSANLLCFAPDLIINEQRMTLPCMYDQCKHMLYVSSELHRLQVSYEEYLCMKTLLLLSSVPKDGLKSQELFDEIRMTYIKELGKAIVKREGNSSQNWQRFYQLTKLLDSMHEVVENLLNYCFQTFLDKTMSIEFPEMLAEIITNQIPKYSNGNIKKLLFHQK

[1] = tested on: mineralocorticoid, progesterone, estrogen and androgen receptors; details: in words only
[2] = phase I and phase II clinical trials already performed
[3] = in words only
[4] = in words only; remark: listed apart in the source

- glucocorticoid receptor binding affinity (glucocorticoid receptor): high
- cross-binding to other related steroidal hormone receptors (such as those for estrogen and progesterone) [1]: without significant cross-binding
SMILES: CC#C[C@]1(O)CC[C@H]2[C@@H]3CCC4=CC(=O)CCC4=C3[C@@H](c3ccc4c(c3)OCO4)C[C@@]21C [ORG 34517, (11β,17β)-11-(1,3-benzodioxol-5-yl)-17-hydroxy-17-(1-propynyl) estra-4,9-dien-3-one]
- significant toxicities and side effects identified [2]: none were identified
- progestagenic activities [3]: low
- androgenic activities [4]: low
